Laboratory results published in US20240174692A1, “PYRIMIDINE AROMATIC RING COMPOUNDS” (Medshine Discovery Inc., priority 2021, published 2024).

Legend:
plasma protein [1] = experiment: Plasma protein binding (PPB), equilibrium dialysis, D plasma; type: in vitro ADME, dog; details: 2 μM, 4 hr dialysis
Experimental: (§1) Assay procedure: 995 μL of blank plasma of various genera were weighed, and 5 μL of assay compound working solution (400 μM) or warfarin working solution (400 μM) was added so that the final concentrations of the assay compound and warfarin in plasma sample were each 2 μM. The samples were mixed thoroughly. The final concentration of DMSO (the organic phase) was 0.5%. 50 μL of the plasma samples of the assay compound and warfarin were pipetted to a sample receiving plate (in triplicate), and the corresponding volume of corresponding blank plasma or buffer was added immediately, so that the final volume in each sample well was 100 μL, wherein the volume ratio of plasma:dialysis buffer was 1:1. 500 μL of stop solution was then added to these samples. These samples were used as T0 samples for determination of recovery and stability. […] All samples were subjected to protein precipitation, and then analyzed by LC/MS/MS. Bound rate and recovery rate of protein were calculated using the following formulae: % Unbound=100*F/T % Bound=100−% Unbound, % Recovery=100*(F+T)/T0 (wherein F is the peak area ratio of the compound in the dialysate after 4 h of dialysis; T is the peak area ratio of the compound in the plasma after 4 h of dialysis; T0 is the peak area ratio of the compound in the plasma sample at time zero).

[2] = Pharmacokinetic evaluation of compounds in mice; type: in vivo, CD-1 mice; details: CD-1 male mice
Experimental: Purpose of assay: To assay the pharmacokinetic data of the compounds in CD-1 mice in vivo.
(§2) Compounds were mixed with vehicle 5% DMSO/95% (10% HP-β-CD aqueous solution), and the mixture was vortexed and sonicated to give 0.2 mg/mL-0.3 mg/mL clear solutions. CD-1 male mice aged 7 to 10 weeks were selected, and the candidate compound solution was administered intravenously. Whole blood was collected for a certain period of time to prepare the plasma. The drug concentration was analyzed by LC-MS/MS method and pharmacokinetic parameters were calculated by Phoenix WinNonlin software (Pharsight, USA).
as §2, with “in water),” for “aqueous solution),”, “1.6 mg/mL to 4.0” for “0.2 mg/mL-0.3”, “orally administered.” for “administered intravenously.”, “prepare” for “prepare the”, “method,” for “method”

plasma protein [3] = experiment: Plasma protein binding (PPB), equilibrium dialysis, R plasma; type: in vitro ADME, rat; details: 2 μM, 4 hr dialysis
Experimental: as §1

[4] = Pharmacokinetic evaluation of compounds in rats; type: in vivo; details: rat, plasma, SD rats
Experimental: Purpose of assay: To assay the pharmacokinetic data of the compounds in SD rats in vivo.
(§3) Compounds were mixed with vehicle 5% DMSO/95% (10% HP-β-CD in water), and the mixture was vortexed and sonicated to give a clear solution of 0.3 mg/mL. The candidate compound solutions were administered intravenously. Whole blood was collected for a certain period of time to prepare plasma. The drug concentration was analyzed by LC-MS/MS method, and pharmacokinetic parameters were calculated.
as §3, with “a” for “a clear”, “7” for “0.3”, “orally.” for “intravenously.”

plasma protein [5] = experiment: Plasma protein binding (PPB), equilibrium dialysis, M plasma; type: in vitro ADME, mouse; details: 2 μM, 4 hr dialysis
Experimental: as §1

C#Cc1c(F)ccc2cc(N)cc(-c3ccc4c(N5CC6CCC(C5)N6)nc(OC[C@@]56CCCN5C[C@H](F)C6)nc4c3F)c12 [Compound 014]
Unbound PPB D (plasma protein [1]): 3.0%
AUCu ([2]; PO, 16.0 mg/kg, AUCu = AUC0-inf *Unbound PPB (Mouse)): 0.0671 µM·h
AUC(0-inf) ([2]; mouse, plasma, IV, 1.28 mg/kg): 0.565 µM·h
C0 ([2]; mouse, plasma, IV, 1.28 mg/kg): 953 nM
Vd ([2]; mouse, plasma, IV, 1.28 mg/kg): 25.6 L/kg
clearance ([2]; mouse, plasma, IV, 1.28 mg/kg): 77 mL/min/kg
half-life ([2]; mouse, plasma, IV, 1.28 mg/kg): 5.7 h
AUC(0-inf) ([2]; mouse, plasma, PO, 16.0 mg/kg): 1.49 µM·h
Cmax ([2]; mouse, plasma, PO, 16.0 mg/kg): 524 nM
bioavailability ([2]; mouse, plasma, PO, 16.0 mg/kg): 20.5%
half-life ([2]; mouse, plasma, PO, 16.0 mg/kg): 6 h
Unbound PPB R (plasma protein [3]): 2.0%
AUC(0-inf) ([4]; IV, 1.56 mg/kg): 0.15 µM·h
C0 ([4]; IV, 1.56 mg/kg): 971 nM
Vd ([4]; IV, 1.56 mg/kg): 5.89 L/kg
clearance ([4]; IV, 1.56 mg/kg): 271 mL/min/kg
half-life ([4]; IV, 1.56 mg/kg): 0.56 h
AUC(0-inf) ([4]; PO, 31.7 mg/kg): 0.427 µM·h
Cmax ([4]; PO, 31.7 mg/kg): 182 nM
bioavailability ([4]; PO, 31.7 mg/kg): 12.5%
half-life ([4]; PO, 31.7 mg/kg): 6.8 h
Unbound PPB M (plasma protein [5]): 4.5%
